Values joined by “and” are separate entries in the source; they are usually repeats but may differ in a detail not shown here. Equal values may be shown once. Read-outs that look alike come from different tables or passages of the source.
Assays:
[1] = in vitro; conditions: African green monkey
[2] = test system: Norovirus; assay: microbe, parasite or virus in culture; type: cell-based; conditions: HG23
[3] = test system: West Nile virus; assay: microbe, parasite or virus in culture; type: cell-based; conditions: Vero 76
[4] = test system: Murine norovirus; assay: microbe, parasite or virus in culture; type: cell-based; conditions: Norwalk virus, RAW267.4
[5] = test system: Marburg virus (MARV), Musoke strain; assay: organism not typed; type: cell-based; conditions: HeLa; n=6; read-out: IC50 ± SEM versus MARV Musoke strain
[6] = test system: HeLa cells; conditions: human
[7] = mouse, microsomes
[8] = test system: HepG2 2.2.15; conditions: human
[9] = test system: Hepatitis C virus; assay: microbe, parasite or virus in culture; type: cell-based; conditions: Huh-7
[10] = in vitro; conditions: mouse
[11] = microsomes
[12] = test system: Zika virus; assay: microbe, parasite or virus in culture; type: cell-based; conditions: Huh-7
[13] = test system: Respiratory synactial virus; assay: organism not typed; type: cell-based; conditions: MA104
[14] = test system: Vero; conditions: African green monkey
[15] = test system: Venezuelian equine encephalitis virus; assay: microbe, parasite or virus in culture; type: cell-based; conditions: Venezuelan equine encephalitis virus, Vero 76
[16] = test system: Poliovirus 3; assay: microbe, parasite or virus in culture; type: cell-based; conditions: Enterovirus C, Vero 76
[17] = test system: Human cytomegalovirus; assay: microbe, parasite or virus in culture; type: cell-based; conditions: Human betaherpesvirus 5
[18] = human, microsomes
[19] = guinea pig, microsomes
[20] = test system: Ebola virus/H.sapiens-tc/COD/1995/Kikwit-9510621 (EBOV/Kik); assay: microbe, parasite or virus in culture; type: cell-based; conditions: Zaire ebolavirus, HeLa
[21] = test system: Ebola virus/H.sapiens-tc/COD/1976/Yambuku-Mayinga (EBOV/May); assay: microbe, parasite or virus in culture; type: cell-based; conditions: Zaire ebolavirus, HeLa
[22] = test system: Chikungunya virus; assay: microbe, parasite or virus in culture; type: cell-based; conditions: Vero 76
[23] = mouse, microsomes; cited from earlier work
[24] = test system: Zika virus; assay: microbe, parasite or virus in culture; type: cell-based; conditions: Vero 76
[25] = test system: SARS-CoV-2; assay: microbe, parasite or virus in culture; type: cell-based
[26] = test system: Ebola virus; assay: microbe, parasite or virus in culture; type: cell-based; conditions: Zaire ebolavirus, Vero 76
[27] = test system: Dengue Virus 2; assay: microbe, parasite or virus in culture; type: cell-based; conditions: Vero 76
[28] = male, Hartley, guinea pig, in vivo
[29] = molecular target: SARS-CoV-2 Spike RBD (Severe acute respiratory syndrome coronavirus 2, UniProt P0DTC2); type: binding
[30] = in vitro; conditions: human
[31] = test system: Marburg virus/H.sapiens-tc/AGO/2005/Ang-1379v (MARV/Ang); assay: organism not typed; type: cell-based; conditions: HeLa
[32] = test system: Herpes Simplex Virus 1; assay: microbe, parasite or virus in culture; type: cell-based; conditions: Human alphaherpesvirus 1
[33] = test system: Vesicular Stomatitis Virus (VSV) pseudotyped with EBOV glycoprotein; assay: microbe, parasite or virus in culture; type: cell-based, Ebola virus; conditions: HeLa, read-out: IC50, inhibition of EBOV-VSV pseudovirus entry
[34] = test system: Ebola virus/H.sapiens-tc/GIN/2014/Makona-005 (EBOV/Mak); assay: microbe, parasite or virus in culture; type: cell-based; conditions: Zaire ebolavirus, HeLa
[35] = test system: Nipah virus; assay: microbe, parasite or virus in culture; type: cell-based; conditions: Henipavirus nipahense, read-out: IC50 against Nipah virus
[36] = test system: Rift Valley fever virus; assay: microbe, parasite or virus in culture; type: cell-based; conditions: Vero 76
[37] = test system: murine hepatitis virus (MHV); assay: microbe, parasite or virus in culture; type: cell-based; conditions: Murine coronavirus, read-out: IC50 versus murine hepatitis virus (MHV)
[38] = human, microsomes, 1 h, pH 7.4
[39] = guinea pig, pH 7.4

COc1ccc2nc3cc(Cl)ccc3c(Nc3cc(CN4CCCC4)c(O)c(CN4CCCC4)c3)c2n1 [Pyronaridine, 4-[(7-Chloro-2-methoxybenzo[b][1,5]naph-thyridin-10-yl)amino]-2,6-bis(1-pyrrolidinylmethyl)phenol phosphate (1:4)]
CC50 [1]: 7500 nM
EC50 [2]: 3500 nM
EC90 [2]: 9700 nM
EC50 [3]: > 24000 nM
EC50 [4]: > 40000 nM
EC90 [4]: > 40000 nM
IC50 [5]: 1080 ± 197 nM
CC50 [6]: 4110 ± 500 nM
Clint [7]: <7.4
Dextromethorphan: compound, t1/2 normalized to dextromethorphan control [7]: >11.5
t1/2 [7]: >3.1 h
CC50 [8]: 3540 nM
EC50 [9]: 780 nM
EC90 [9]: 1710 nM
CC50 [10]: > 40000 nM
Clint [11]: 15.5
Dextromethorphan: compound, t1/2 normalized to dextromethorphan control [11]: 16.7
t1/2 ([11]; monkey): 1.5 h
EC50 [12]: 3200 nM
EC50 [13]: > 7500 nM
CC50 [14]: 3200 nM
EC50 [15]: 1800 nM
EC50 [16]: 3200 nM
EC50 [17]: > 1200 nM
EC90 [17]: > 1200 nM
Clint [18]: 11.4
Dextromethorphan: compound, t1/2 normalized to dextromethorphan control [18]: 6.2
t1/2 [18]: 2.037 h
Clint [19]: 21.0
Dextromethorphan: compound, t1/2 normalized to dextromethorphan control [19]: 23.4
t1/2 [19]: 1.1 h
IC50 [20]: 1300 ± 420 nM
IC50 ([20]; read-out: IC50 range against three strains of EBOV): 820 to 1300 nM
IC50 [21]: 1010 ± 580 nM
EC50 [22]: 3200 nM
Relative Peak Area/Abundance MLM [23]: 100%
EC50 [24]: 3200 nM
IC50 ([25]; Severe acute respiratory syndrome coronavirus 2, A549-ACE2, read-out: IC50 against SARS-CoV-2): < 200 nM
IC50 ([25]; read-out: IC50 against SARS-CoV-2): ~198 nM and 198 nM
EC50 [26]: > 1300 nM
EC50 [27]: 3200 nM
guinea pigs found dead on days 14 and 17 post dose ([28]; ip): 2 of 3
measurable plasma levels through ([28]; ip): 168 h
AUCinf Mean ([28]; ip, 125 mg/kg): 17,430 hr * ng/ml
AUClast Mean ([28]; ip, 125 mg/kg): 16,565 hr * ng/ml
Cmax Mean ([28]; ip, 125 mg/kg): 523 ng/mL
T1/2 ([28]; ip, 125 mg/kg): 72.7 h
measurable plasma levels through ([28]; po): 336 h
AUCinf Mean ([28]; po, 600 mg/kg): 58,783 hr * ng/ml
AUClast Mean ([28]; po, 600 mg/kg): 50,964 hr * ng/ml
Cmax Mean ([28]; po, 600 mg/kg): 1800 ng/mL
T1/2 ([28]; po, 600 mg/kg): 90.5 h
Kd ([29]; pH5.2): 618 nM
Kd ([29]; pH 7.4): 647 nM
CC50 [30]: > 100000 nM
IC50 [31]: 2720 ± 970 nM
IC50 ([31]; read-out: IC50 range against two strains of Marburg virus): 1010 to 2720 nM
EC50 [32]: > 6000 nM
EC90 [32]: > 6000 nM
IC50 [33]: 2070 nM
IC50 [34]: 820 ± 190 nM
IC50 [35]: 64 nM
EC50 [36]: 3200 nM
IC50 [37]: 2750 nM
Relative Peak Area/Abundance HLM [38]: 85.9%
Relative Peak Area/Abundance GPLM [39]: 75.9%

From patent US11696914B1 (priority 2019, dated 2023)
